US8293374B2, “Test system for evaluating the compatibility of biologically active substances with copolymers” (Abbott GmbH & Co. KG, priority 2002, dated 2012)

Columns and labels:
[1] = Thermodynamic saturation solubility in test solvent, HPLC of clear supernatant after stirring 24 hours (method b); assay type: physicochemical
Procedure: Quantitative determination of the solubility is possible for example in the following way: • a) A concentration series is prepared by bringing various amounts of biologically active substance into contact with a constant amount of test solvent in parallel tests. After an equilibration time over a defined period at a given temperature, preferably with blending, e.g. stirring for 24 hours or ultrasound treatment for 30 min, the maximum concentration at which clear solutions are obtained is found. The solubility of the biologically active substance is between the concentration at which a clear solution is obtained but at the next concentration no clear solution is obtained. • b) An amount of the test solvent which is insufficient for completely dissolving is added to an amount of the biologically active substance, or further amounts of biologically active substance are added to the solution until the added amount no longer completely dissolves. After an equilibration time over a defined period at a given temperature, preferably with blending, e.g. stirring for 24 hours or ultrasound treatment for 30 min, a sample of the clear supernatant is taken. The mixture can for this purpose be previously centrifuged, e.g. using an ultracentrifuge at 8000 to 12 000 rpm. The concentration of the biologically active substance is determined in the sample of the clear supernatant, e.g. by high pressure liquid chromatography (HPLC). The value which is found corresponds to the solubility of the biologically active substance.
(§1) The copolymer was simulated by a mixture of 1,3-bis-(pyrrolidon-1-yl)butane and 1,4-diacetoxybutane in the ratio of 6:4 by weight.
In an alternative determination method, 150 mg of lopinavir were mixed with 350 mg of the test solvent and stirred at room temperature for 24 hours. The sample was then centrifuged at 12 000 rpm for one minute. The clear supernatant was investigated by HPLC.
Example 1b) was repeated but with the test solvent containing 5% by weight Cremophor RH 40.
Example 1b) was repeated with the abovementioned active ingredient premix. 21.3% by weight lopinavir was found in the clear supernatant by HPLC.
Example 3a) was repeated, using the concentrations indicated in the table below, and with the test solvent containing 10% by weight Cremophor RH 40. […] The HPLC method led to a result of 21.7% for lopinavir.

[2] = Maximum solubility in test solvent after ultrasound treatment, HPLC of supernatant (method c); assay type: physicochemical
Procedure: However, the active ingredient loading in solid solutions can be increased greatly by energy input. The maximum active ingredient loading achievable in a given matrix of a copolymer can be predicted with the test system of the invention by determining the solubility of the biologically active substance in accordance with one of the aforementioned methods a) or b), the equilibration being carried out by heating to a temperature of, for example, 140° C., in particular from 110 to 140° C., or by sonication.
as §1
The maximum solubility was determined by mixing 60 mg of lopinavir with 140 mg of the test solvent and treating with ultrasound at room temperature for 30 min. The solvent was then centrifuged at 10 000 rpm for 10 min. A sample of the clear supernatant was investigated by HPLC. […] The remaining amount of the sample was stored at room temperature for 4 weeks. Then a further sample of the supernatant was taken and investigated by HPLC. A concentration of 28.87% by weight was found.

Which solubility ([1]; 150 mg lopinavir + 350 mg test solvent 6:4, stirred at room temperature 24 hours, HPLC of clear supernatant) does the source give for `Cc1cccc(C)c1OCC(=O)N[C@@H](Cc1ccccc1)[C@@H](O)C[C@H](Cc1ccccc1)NC(=O)[C@H](C(C)C)N1CCCNC1=O` [Lopinavir] here?
The solubility was 24.9 % by weight.

And the “influence of Cremophor RH 40 on thermodynamic saturation solubility” value ([1]; 5% by weight Cremophor RH 40 in test solvent versus none)?
The value was “reduces the thermodynamic saturation solubility”.

What about the solubility ([1]; HPLC of supernatant, test solvent containing 5% by weight Cremophor RH 40) of the same molecule?
Its solubility is 22.8%.

What about the “lopinavir found in the clear supernatant” value ([1]; HPLC, lopinavir/ritonavir premix 4:1 by weight, test solvent 6:4) of the same molecule?
Its value is 21.3 % by weight.

And the “thermodynamic saturation solubility, HPLC method” value ([1]; lopinavir/ritonavir premix 4:1, test solvent containing 10% by weight Cremophor RH 40)?
Its value is 21.7%.

What about the “influence of ritonavir on thermodynamic saturation solubility” value ([1]; presence of ritonavir (premix 4:1) versus lopinavir alone) of the same molecule?
The value was “reduces the thermodynamic saturation solubility”.

And the maximum solubility ([2]; 60 mg lopinavir + 140 mg test solvent, ultrasound at room temperature 30 min, HPLC of supernatant)?
The maximum solubility was 39.72 % by weight.

And the “concentration in supernatant after storage” value ([2]; after ultrasound treatment, sample stored at room temperature for 4 weeks, HPLC)?
The value was 28.87 % by weight.
